Data on 18 compounds can be found in ChEMBL document CHEMBL1152500, “Molecular recognition in the P2Y(14) receptor: Probing the structurally permissive terminal sugar moiety of uridine-5'-diphosphoglucose” (Bioorg Med Chem, 2009).

Some results are limits rather than exact numbers.

The target in the first assay is T1, P2Y purinoceptor 14 (Homo sapiens) (UniProt Q15391).
T1 sequence (whole entry): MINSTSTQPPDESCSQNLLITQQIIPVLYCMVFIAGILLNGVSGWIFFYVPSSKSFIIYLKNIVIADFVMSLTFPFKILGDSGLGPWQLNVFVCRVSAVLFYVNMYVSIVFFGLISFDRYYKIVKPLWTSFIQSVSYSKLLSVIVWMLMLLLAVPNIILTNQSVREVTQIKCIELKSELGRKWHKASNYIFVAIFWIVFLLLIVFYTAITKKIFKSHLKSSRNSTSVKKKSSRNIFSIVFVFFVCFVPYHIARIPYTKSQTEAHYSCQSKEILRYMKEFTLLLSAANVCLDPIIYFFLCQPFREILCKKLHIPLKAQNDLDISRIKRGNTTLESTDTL
As to the kind of experiment: Agonist activity at human P2Y14 receptor expressed in […] cells at 10 uM. It counts as functional, cell-based. To be noted: COS-7.
As for `O=c1ccn([C@@H]2O[C@H](COP(=O)(O)OP(=O)(O)OC[C@H]3O[C@H](O)C[C@@H](O)[C@@H]3O)[C@@H](O)[C@H]2O)c(=O)[nH]1`, the Efficacy was below 50%.
Compound `CC(=O)N[C@@H]1[C@@H](O)[C@H](O)[C@@H](CO)O[C@@H]1CP(=O)(O)OP(=O)(O)OC[C@H]1O[C@@H](n2ccc(=O)[nH]c2=O)[C@H](O)[C@@H]1O` gave an Efficacy below 50%.
In turn, `O=c1ccn([C@@H]2C[C@H](COP(=O)(O)OP(=O)(O)O[C@H]3O[C@H](CO)[C@@H](O)[C@H](O)[C@H]3O)[C@@H](O)[C@H]2O)c(=O)[nH]1` gave an Efficacy below 20%.
On the same count and under the same terms, as for `CO/N=c1/ccn([C@@H]2O[C@H](COP(=O)(O)OP(=O)(O)O[C@H]3O[C@H](CO)[C@@H](O)[C@H](O)[C@H]3O)[C@@H](O)[C@H]2O)c(=O)[nH]1`, the figure is below 50%.

For another assay, the target named is T2, P2Y purinoceptor 14 (Homo sapiens, UniProt Q15391).
T2 sequence (Q15391 whole entry): T1 sequence (whole entry)
Briefly: Agonist activity at human P2Y14 receptor expressed in […] cells. It counts as functional, cell-based, COS-7.
Details: not given
As usually defined, the EC50 is the concentration needed to bring the measured effect to its halfway point. The low end stands for greater potency, the high end for weaker potency. `O=c1ccn([C@@H]2O[C@H](COP(=O)(O)OP(=O)(O)OC[C@H]3O[C@H](O)[C@H](O)[C@@H](O)[C@@H]3O)[C@@H](O)[C@H]2O)c(=O)[nH]1`: the EC50 turned out to be 373 nM.
In turn, `O=c1ccn([C@@H]2O[C@H](COP(=O)(O)OP(=O)(O)OC[C@H]3O[C@H](O)[C@H](O)[C@@H]3O)[C@@H](O)[C@H]2O)c(=O)[nH]1` had a concentration for a half-maximal effect (EC50) of 238 nM.
`C[C@H]1O[C@H](OP(=O)(O)OP(=O)(O)OC[C@H]2O[C@@H](n3ccc(=O)[nH]c3=O)[C@H](O)[C@@H]2O)[C@H](O)[C@@H](O)[C@H]1O` displayed an EC50 of 562 nM.
Same read-out and setting: as for `O=c1ccn([C@@H]2O[C@H](COP(=O)(O)OP(=O)(O)OC[C@H]3O[C@H](O)[C@@H](O)[C@@H](O)[C@@H]3O)[C@@H](O)[C@H]2O)c(=O)[nH]1`, the figure is 658 nM.
On the same count and under the same terms, under `O=c1ccn([C@@H]2O[C@H](COP(=O)(O)OP(=O)(O)O[C@H]3O[C@H](CO)[C@@H](F)[C@H](O)[C@H]3O)[C@@H](O)[C@H]2O)c(=O)[nH]1` stands 567 nM; under `CC(=O)NCCNC(=O)[C@H]1O[C@H](OP(=O)(O)OP(=O)(O)OC[C@H]2O[C@@H](n3ccc(=O)[nH]c3=O)[C@H](O)[C@@H]2O)[C@H](O)[C@@H](O)[C@@H]1O`, 496 nM; under `O=c1[nH]c(=S)ccn1[C@@H]1O[C@H](COP(=O)(O)OP(=O)(O)O[C@H]2O[C@H](CO)[C@@H](O)[C@H](O)[C@H]2O)[C@@H](O)[C@H]1O`, 290 nM.
Regarding `O=c1ccn([C@@H]2O[C@H](COP(=O)(O)OP(=O)(O)O[C@H]3O[C@H](CO)[C@@H](O)[C@H](F)[C@H]3O)[C@@H](O)[C@H]2O)c(=O)[nH]1`, the 50% effective concentration (EC50) was determined as 361 nM.
Take `O=c1ccn([C@@H]2O[C@H](COP(=O)(O)OP(=O)(O)O[C@H]3O[C@H](CF)[C@@H](O)[C@H](O)[C@H]3O)[C@@H](O)[C@H]2O)c(=O)[nH]1`: the midpoint of the response, the EC50, lay at 905 nM.
Same read-out and setting: under `O=c1ccn([C@@H]2O[C@H](COP(=O)(O)OP(=O)(O)O[C@@H]3[C@H](O)[C@H](O)[C@@H](O)[C@H](O)[C@H]3O)[C@@H](O)[C@H]2O)c(=O)[nH]1` stands 1880 nM; under `O=c1ccn([C@@H]2O[C@H](COP(=O)(O)OP(=O)(O)O[C@H]3O[C@H](CO)[C@@H](O)[C@H](O)[C@H]3F)[C@@H](O)[C@H]2O)c(=O)[nH]1`, 2500 nM; under `O=c1ccn([C@@H]2O[C@H](COP(=O)(O)OP(=O)(O)OC[C@H]3O[C@H](O)[C@@H](O)[C@@H]3O)[C@@H](O)[C@H]2O)c(=O)[nH]1`, 460 nM.
`CC(C)(C)OC(=O)NCCNC(=O)[C@H]1O[C@H](OP(=O)(O)OP(=O)(O)OC[C@H]2O[C@@H](n3ccc(=O)[nH]c3=O)[C@H](O)[C@@H]2O)[C@H](O)[C@@H](O)[C@@H]1O` had a concentration giving a half-maximal response (EC50) of 951 nM.
On the same count and under the same terms, as for `O=c1ccn([C@@H]2O[C@H](COP(=O)(O)OP(=O)(O)OC[C@H]3O[C@](O)(CO)[C@@H](O)[C@@H]3O)[C@@H](O)[C@H]2O)c(=O)[nH]1`, the figure is 323 nM.
